Measurements taken from patent publication US20230357249A1, “ANDROGEN RECEPTOR PROTEIN DEGRADERS WITH A TRICYCLIC CEREBLON LIGAND” (THE REGENTS OF THE UNIVERSITY OF MICHIGAN, priority 2020, published 2023).

System: AR protein
Assay: AR protein degradation in MDA-MB-453 cells, Western blotting
Format: cell-based
Parameters: key to AR protein degradation MDA-MB-453 10 nM: A: >90% degradation (24 hr treatment); B: >50% degradation but <90% (24 hr treatment); C: >10% degradation but <50% (24 hr treatment); D: No significant degradation (24 hr treatment)
Conditions: 24 hr treatment
Experimental: The appropriate cell line, e.g., prostate cancer LNCaP, Vcap, or 22RV1 cell line, was treated with Compounds of the Disclosure as indicated. The treated cells were lysed with RIPA buffer. The AR level in the cell lysates was examined by western blotting and a specific AR antibody (ab194196, Abcam, Cambridge, MA 02139) with concentration of 1:20,000. GAPDH was used as a loading control.
Bands were quantified with ImageJ software. The relative numbers of each band obtained from normalization with its corresponding GAPDH level were compared with Prism 8 software. The DC50 values were produced from Prism 8, and the DC90 values were calculated with an equation=Bottom + (Top-Bottom)/(1+10^((LogEC50-X)*HillSlope) based on DC50 and Hillslope values.
The amount of AR protein degradation in VCap and MDA-MB-453 cells caused by representative Compounds of the Disclosure at the concentrations indicated is presented in Table 4, FIG. 1, and FIG. 2.

**Q.** What does the source list for `CC1(C)[C@H](Oc2ccc(C#N)c(Cl)c2)C(C)(C)[C@H]1N1Cc2cc(N3CCN(CC(=O)N4Cc5cc6c(cc5C4)C(=O)N(C4CCC(=O)NC4=O)C6=O)CC3)ccc2C1=O` (some centres unmarked) [compound 2]?
**A.** AR protein degradation MDA-MB-453 10 nM (10 nM): D; AR protein degradation MDA-MB-453 100 nM (100 nM): C (>10% degradation but <50% (24 hr treatment))
